What all share (assay type): in vitro ADME
Series [1] in a line: Metabolic stability in pooled mouse liver microsomes. Particulars: mouse liver microsomes 0.5 mg/mL, 1 uM, 37° C., NADPH. How it is done: (§1) Metabolic Stability: In vitro metabolic stability was determined in pooled mouse or human liver microsomes (BD Gentest) at a protein concentration of 0.5 mg/mL in reaction buffer (100 mM KH2PO4, pH 7.4 and 12 mM MgCl2). Each drug candidate was added to a final concentration of 1 uM. This mixture was pre-warmed to 37° C. for 10 minutes prior to starting the reaction with the addition of β-Nicotinamide adenine dinucleotide 2′-phosphate reduced (NADPH) to a final concentration of 1 mM. A parallel incubation lacking NADPH served as the control. After incubation for 30 min at 37° C., the reactions were quenched by the addition of acetonitrile containing 0.1% formic acid and internal standard, vortex mixed for 2 minutes and centrifuged at 4000 rpm for 10 minutes to pellet the precipitated protein. The resulting supernatant containing the drug candidate and its potential metabolites was diluted 5-fold with water containing 0.1% formic acid and submitted to LC-MS/MS analysis. […]
(§2) LC-MS/MS Analysis: An aliquot from each incubation was analyzed by LC-MS/MS with SRM detection in the positive ionization mode using an ABSciex API 5500 QTrap Mass Spectrometer interfaced via the ABSciex Turbo V IonSpray source (ESI) to an Eksigent ExpressHT LC system. […] A fast gradient, from 15 to 85% organic in 2.5 minutes, with run time of 5.0 minutes, and flow rate of 50 ul/min was utilized. Peak areas were integrated using MultiQuant v2.0 software from ABSciex.
For orientation: Liver microsomes are vesicles of endoplasmic reticulum, rich in cytochrome P450 enzymes.

Series [2] in a line: Stability in Simulated Gastric Fluid (SGF). To be noted: 37° C., 0.01 mg/mL. The method, then:
(§3) Stability in Simulated Gastric Fluid (SGF) and Simulated Intestinal Fluid (SIF). Procedure from Baudy et. al. (J. Med. Chem. 2009, 52, 771-778) used. The physiological stability of prodrugs was determined by examining the stability of the compound in SGF, and SIF at 37° C. The compounds were prepared in a 9:1 mixture of the appropriate test component (SGF, SIF) and acetonitrile to a final concentration of 0.01 mg/mL. The samples were thoroughly mixed and maintained at 37° C. Each sample was injected consecutively onto an Agilent 1100 system (Luna C18, 3 μm, 50 mm×3 mm; 1 mL/min; mobile phase of 0.1% trifluoroacetic acid in water/0.1% trifluoroacetic acid in acetonitrile) after a 3 h period. The percent remaining of prodrug was calculated by comparing the area of prodrug compound versus riluzole generated. The identities of the parent compounds and conversion products were confirmed by LC/MS.

The nature of series [3]: Stability in Simulated Intestinal Fluid (SIF). To be noted: 37° C., 0.01 mg/mL. The method, then: as §3
The nature of series [4]: Plasma stability in fresh human plasma. To be noted: 1 uM, 37° C. How it is done:
(§4) Plasma Stability: Assessment of plasma stability was carried out by individual incubations of drug candidates in fresh mouse or human control plasma at a concentration of 1 uM for 1 hour at 37° C. After which, the samples were de-proteinized by addition of 2 volumes of acetonitrile containing 0.1% formic acid and internal standard, vortex mixed for 2 minutes and centrifuged at 4000 rpm for 10 minutes to pellet precipitated protein. The resulting supernatant containing the drug candidates was diluted 5-fold with water containing 0.1% formic acid and submitted to LC-MS/MS analysis. All determinations were done in triplicate. […]
as §2

Series [5] can be described thus: Metabolic stability in pooled human liver microsomes. Particulars: human liver microsomes 0.5 mg/mL, 1 uM, 37° C., NADPH. How it is done: as §1, §2
A short description of series [6]: Plasma stability in fresh mouse plasma. To be noted: 1 uM, 37° C. The method, then: as §4, §2

SMILES strings stand for the structures.

With `N[C@@H](COCc1ccccc1)C(=O)Nc1nc2ccc(OC(F)(F)F)cc2s1` [Cpd 10, (S)-2-Amino-3-benzyloxy-N-(6-trifluoromethoxy-benzothiazol-2-yl)-propionamide], in series [1], the “Metabolic Stability mouse (30 minutes): percent of prodrug metabolized to riluzole” value came out at 0%. The “SGF (3 hours): percent of prodrug metabolized to riluzole” value (“SGF (3 hours): percent” for short) in series [2] is on record as 0%. Further, in series [3], the “SIF (3 hours): percent of prodrug metabolized to riluzole” value (“SIF (3 hours): percent” for short) is recorded as 0%. Besides, in series [4], the “Plasma Stability Human (1 hour): percent of prodrug metabolized to riluzole” value (“Plasma Stability Human (1 hour): percent” for short) is 9%. For the same compound, the “Metabolic Stability human (30 minutes): percent of prodrug metabolized to riluzole” value in series [5] is reported as 15%. Besides, the “Plasma Stability mouse (1 hour): percent of prodrug metabolized to riluzole” value (shortened to “Plasma Stability mouse (1 hour): percent”) in series [6] is given as 52%.
`CC(C)[C@H](N)C(=O)Nc1nc2ccc(OC(F)(F)F)cc2s1` [Cpd 11, (S)-2-Amino-3-methyl-N-(6-trifluoromethoxy-benzothiazol-2-yl)-butyramide]: in series [1], the “Metabolic Stability mouse (30 minutes): percent of prodrug metabolized to riluzole” value is 40%. Further, the “SGF (3 hours): percent” value in series [2] is reported as 0%. Besides, the “SIF (3 hours): percent” value in series [3] is on record as 40%. The “Plasma Stability Human (1 hour): percent” value in series [4] came out at 11%. Moreover, the “Metabolic Stability human (30 minutes): percent of prodrug metabolized to riluzole” value in series [5] came to 6%. In addition, the “Plasma Stability mouse (1 hour): percent” value in series [6] is 45%.
`COC(=O)Nc1nc2ccc(OC(F)(F)F)cc2s1` [Cpd 12, (6-Trifluoromethoxy-benzothiazol-2-yl)-carbamic acid methyl ester]: the “Metabolic Stability mouse (30 minutes): percent of prodrug metabolized to riluzole” value in series [1] came out at 10%. Also, the “SGF (3 hours): percent” value in series [2] was 0%. In addition, the “SIF (3 hours): percent” value in series [3] is on record as 0%. Also, the “Plasma Stability Human (1 hour): percent” value in series [4] was 15%. Also, the “Metabolic Stability human (30 minutes): percent of prodrug metabolized to riluzole” value in series [5] is reported as 0%. For the same compound, the “Plasma Stability mouse (1 hour): percent” value in series [6] is 0%.
As to `CCOC(=O)Nc1nc2ccc(OC(F)(F)F)cc2s1` [Cpd 13, (6-Trifluoromethoxy-benzothiazol-2-yl)-carbamic acid ethyl ester], in series [1], the “Metabolic Stability mouse (30 minutes): percent of prodrug metabolized to riluzole” value is listed as 8%. In series [2], the “SGF (3 hours): percent” value was 0%. Moreover, the “SIF (3 hours): percent” value in series [3] was 0%. Further, the “Plasma Stability Human (1 hour): percent” value in series [4] came to 0%. The “Metabolic Stability human (30 minutes): percent of prodrug metabolized to riluzole” value in series [5] is listed as 7%. For the same compound, in series [6], the “Plasma Stability mouse (1 hour): percent” value amounted to 0%.
In the case of `CCCOC(=O)Nc1nc2ccc(OC(F)(F)F)cc2s1` [Cpd 14, (6-Trifluoromethoxy-benzothiazol-2-yl)-carbamic acid propyl ester], the “Metabolic Stability mouse (30 minutes): percent of prodrug metabolized to riluzole” value in series [1] was determined as 15%. The “SGF (3 hours): percent” value in series [2] is reported as 0%. In addition, in series [3], the “SIF (3 hours): percent” value is listed as 0%. Also, the “Plasma Stability Human (1 hour): percent” value in series [4] worked out at 0%. Further, the “Metabolic Stability human (30 minutes): percent of prodrug metabolized to riluzole” value in series [5] was 34%. Besides, the “Plasma Stability mouse (1 hour): percent” value in series [6] is recorded as 0%.
As for `CCCCOC(=O)Nc1nc2ccc(OC(F)(F)F)cc2s1` [Cpd 15, (6-Trifluoromethoxy-benzothiazol-2-yl)-carbamic acid butyl ester], the “Metabolic Stability mouse (30 minutes): percent of prodrug metabolized to riluzole” value in series [1] was 53%. Moreover, in series [2], the “SGF (3 hours): percent” value is on record as 0%. Besides, the “SIF (3 hours): percent” value in series [3] is 0%. Also, the “Plasma Stability Human (1 hour): percent” value in series [4] was found to be 0%. In addition, the “Metabolic Stability human (30 minutes): percent of prodrug metabolized to riluzole” value in series [5] amounted to 13%. Besides, the “Plasma Stability mouse (1 hour): percent” value in series [6] was 9%.
Turning to `CC(C)COC(=O)Nc1nc2ccc(OC(F)(F)F)cc2s1` [Cpd 16, (6-Trifluoromethoxy-benzothiazol-2-yl)-carbamic acid isobutyl ester], the “Metabolic Stability mouse (30 minutes): percent of prodrug metabolized to riluzole” value in series [1] worked out at 23%. Moreover, the “SGF (3 hours): percent” value in series [2] is listed as 5%. The “SIF (3 hours): percent” value in series [3] is listed as 0%. The “Plasma Stability Human (1 hour): percent” value in series [4] came out at 0%. Moreover, in series [5], the “Metabolic Stability human (30 minutes): percent of prodrug metabolized to riluzole” value is 14%. Further, the “Plasma Stability mouse (1 hour): percent” value in series [6] worked out at 0%.
As to `CN(C)CCOC(=O)Nc1nc2ccc(OC(F)(F)F)cc2s1` [Cpd 18, (6-Trifluoromethoxy-benzothiazol-2-yl)-carbamic acid 2-dimethylamino-ethyl ester], the “Metabolic Stability mouse (30 minutes): percent of prodrug metabolized to riluzole” value in series [1] worked out at 13%. In series [2], the “SGF (3 hours): percent” value is on record as 0%. Besides, the “SIF (3 hours): percent” value in series [3] is 0%. For the same compound, the “Plasma Stability Human (1 hour): percent” value in series [4] was 0%. For the same compound, in series [5], the “Metabolic Stability human (30 minutes): percent of prodrug metabolized to riluzole” value is on record as 10%. Further, the “Plasma Stability mouse (1 hour): percent” value in series [6] turned out to be 3%.
With `CN(C)CCCOC(=O)Nc1nc2ccc(OC(F)(F)F)cc2s1` [Cpd 19, (6-Trifluoromethoxy-benzothiazol-2-yl)-carbamic acid 3-dimethylamino-propyl ester], the “Metabolic Stability mouse (30 minutes): percent of prodrug metabolized to riluzole” value in series [1] came out at 71%. Further, the “SGF (3 hours): percent” value in series [2] is 0%. In addition, in series [3], the “SIF (3 hours): percent” value was 0%. Further, the “Plasma Stability Human (1 hour): percent” value in series [4] was found to be 0%. For the same compound, the “Metabolic Stability human (30 minutes): percent of prodrug metabolized to riluzole” value in series [5] was 0%. Further, the “Plasma Stability mouse (1 hour): percent” value in series [6] amounted to 0%.
Take `O=C(O)CCC(=O)Nc1nc2ccc(OC(F)(F)F)cc2s1` [Cpd 20, N-(6-Trifluoromethoxy-benzothiazol-2-yl)-succinamic acid]: the “Metabolic Stability mouse (30 minutes): percent of prodrug metabolized to riluzole” value in series [1] was found to be 70%. In series [2], the “SGF (3 hours): percent” value is on record as 0%. Further, in series [3], the “SIF (3 hours): percent” value was 0%. The “Plasma Stability Human (1 hour): percent” value in series [4] is 16%. For the same compound, the “Metabolic Stability human (30 minutes): percent of prodrug metabolized to riluzole” value in series [5] is 0%. The “Plasma Stability mouse (1 hour): percent” value in series [6] came to 0%.
Regarding `COC(=O)CCC(=O)Nc1nc2ccc(OC(F)(F)F)cc2s1` [Cpd 21, N-(6-Trifluoromethoxy-benzothiazol-2-yl)-succinamic acid methyl ester], the “Metabolic Stability mouse (30 minutes): percent of prodrug metabolized to riluzole” value in series [1] worked out at 77%. In addition, the “SGF (3 hours): percent” value in series [2] is 3%. In addition, in series [3], the “SIF (3 hours): percent” value is 0%. In series [4], the “Plasma Stability Human (1 hour): percent” value came to 25%. Further, the “Metabolic Stability human (30 minutes): percent of prodrug metabolized to riluzole” value in series [5] is given as 34%. In addition, the “Plasma Stability mouse (1 hour): percent” value in series [6] is listed as 99%.
Take `CC(C)(C)OC(=O)CCC(=O)Nc1nc2ccc(OC(F)(F)F)cc2s1` [Cpd 22, N-(6-Trifluoromethoxy-benzothiazol-2-yl)-succinamic acid tert-butyl ester]: in series [1], the “Metabolic Stability mouse (30 minutes): percent of prodrug metabolized to riluzole” value is on record as 0%. In addition, the “SGF (3 hours): percent” value in series [2] was 0%. In addition, the “SIF (3 hours): percent” value in series [3] is on record as 0%. In addition, in series [4], the “Plasma Stability Human (1 hour): percent” value stood at 0%. The “Metabolic Stability human (30 minutes): percent of prodrug metabolized to riluzole” value in series [5] is on record as 21%. For the same compound, the “Plasma Stability mouse (1 hour): percent” value in series [6] is listed as 0%.

These data come from patent US12172974B2 (Biohaven Pharmaceutical Holding Company Ltd., priority 2012, dated 2024).
